These results are taken from patent publication US12139499B2, “Heteroaryl compounds for treating Huntington's disease” (PTC THERAPEUTICS, INC., priority 2018, dated 2024).

In general, IC50 refers to the concentration that gives 50% inhibition. High values mean a need for much substance, low ones inhibition by little substance.

The subject of the experiment is Endogenous Huntingtin Protein. Kind of experiment: Endogenous Huntingtin Protein Assay (ELISA-based MSD electrochemiluminescence). Format: cell-based. The settings on record: Table 1. Put shortly: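 Huntingtin was captured overnight at 4 °C on plates coated with 1 μg/mL MW1 (polyQ-expanded) or MAB2166 antibody and BSA-blocked. Detection used a rabbit monoclonal and then a SULFO-TAG goat anti-rabbit antibody (0.25 μg/mL, 1 h each, room temperature). Signal was read by electrochemiluminescence.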

As for `Cc1cn2cc(-c3cc4sc(N(C)C5CCNCC5)nc4cn3)cc(F)c2n1` [Compound 215, 6-(8-fluoro-2-methylimidazo[1,2-a]pyridin-6-yl)-N-methyl-N-(piperidin-4-yl)[1,3]thiazolo[4,5-c]pyridin-2-amine], the IC50 was at most 100 nM. As for `CN(c1nc2cnc(-c3cc(F)c4nn(C)cc4c3)cc2s1)C1CCNCC1` [Compound 216, 6-(7-fluoro-2-methyl-2H-indazol-5-yl)-N-methyl-N-(piperidin-4-yl)[1,3]thiazolo[4,5-c]pyridin-2-amine], the figure is 100 to 500 nM.

For the compound `Cc1cn2cc(-c3ncc4nc(N(C)C5CC6CCC(C5)N6)sc4n3)cc(F)c2n1` (stereo not drawn) [Compound 217, N-[(3-exo)-8-azabicyclo[3.2.1]oct-3-yl]-5-(8-fluoro-2-methylimidazo[1,2-a]pyridin-6-yl)-N-methyl[1,3]thiazolo[5,4-d]pyrimidin-2-amine], the IC50 is at most 100 nM. The figure for `CN(c1nc2cnc(-c3cc(F)c4nn(C)cc4c3)nc2s1)C1CC2CCC(C1)N2` (stereo not drawn) [Compound 218, N-[(3-exo)-8-azabicyclo[3.2.1]oct-3-yl]-5-(7-fluoro-2-methyl-2H-indazol-5-yl)-N-methyl[1,3]thiazolo[5,4-d]pyrimidin-2-amine] is 100 to 500 nM; for `Cc1cn2nc(-c3cc(F)c4nc(C5CCNCC5)sc4c3)cc(C(=O)O)c2n1` [Compound 219, 6-[4-fluoro-2-(piperidin-4-yl)-1,3-benzothiazol-6-yl]-2-methylimidazo[1,2-b]pyridazine-8-carboxylic acid] it is 1000 to 3000 nM. As for `COC(=O)Cc1cc(-c2cc(F)c3nc(C4CCNCC4)sc3c2)nn2cc(C)nc12` [Compound 220, methyl {6-[4-fluoro-2-(piperidin-4-yl)-1,3-benzothiazol-6-yl]-2-methylimidazo[1,2-b]pyridazin-8-yl}acetate], the figure is at most 100 nM; as for `Cc1cn2nc(-c3cc(F)c4nc(C5CCNCC5)sc4c3)cc(CC(=O)O)c2n1` [Compound 221, {6-[4-fluoro-2-(piperidin-4-yl)-1,3-benzothiazol-6-yl]-2-methylimidazo[1,2-b]pyridazin-8-yl]acetic acid], at most 100 nM. As for `Cc1cn2cc(-c3cc4sc(NC5CC(C)(C)NC(C)(C)C5)nc4cn3)cc(C#N)c2n1` [Compound 222, 2-methyl-6-{2-[(2,2,6,6-tetramethylpiperidin-4-yl)amino][1,3]thiazolo[4,5-c]pyridin-6-yl]imidazo[1,2-a]pyridine-8-carbonitrile], the figure is at most 100 nM; as for `Cc1cn2cc(-c3cc4sc(OC5CC6CCC(C5)N6)nc4cn3)cc(C#N)c2n1` (stereo not drawn) [Compound 223, 6-{2-[(3-exo)-8-azabicyclo[3.2.1]oct-3-yloxy][1,3]thiazolo[4,5-c]pyridin-6-yl}-2-methylimidazo[1,2-a]pyridine-8-carbonitrile], 100 to 500 nM.

`Cc1cn2nc(-c3cc(F)c4nc(C5CCNCC5)sc4c3)cc(C(N)=O)c2n1` [Compound 224, 6-[4-fluoro-2-(piperidin-4-yl)-1,3-benzothiazol-6-yl]-2-methylimidazo[1,2-b]pyridazine-8-carboxamide]: the concentration for half-maximal inhibition (IC50) is at most 100 nM. The figure for `Cc1cn2cc(-c3cc(F)c4nc(N(C)C5CCNCC5)sc4c3)cc2c(C)n1` [Compound 225, 6-(1,3-dimethylpyrrolo[1,2-a]pyrazin-7-yl)-4-fluoro-N-methyl-N-(piperidin-4-yl)-1,3-benzothiazol-2-amine] is at most 100 nM; for `Cc1cn2cc(-c3cc(F)c4nc(N(C)C5CCNCC5)sc4c3)cc(C#N)c2n1` [Compound 226, 6-{4-fluoro-2-[methyl(piperidin-4-yl)amino]-1,3-benzothiazol-6-yl}-2-methylimidazo[1,2-a]pyridine-8-carbonitrile] it is at most 100 nM. As for `Cc1cn2cc(-c3ncc4nc(N(C)C5C6CCC5CNC6)sc4n3)cc(F)c2n1` (stereo not drawn) [Compound 227, N-[(8-anti)-3-azabicyclo[3.2.1]oct-8-yl]-5-(8-fluoro-2-methylimidazo[1,2-a]pyridin-6-yl)-N-methyl[1,3]thiazolo[5,4-d]pyrimidin-2-amine], the figure is 1000 to 3000 nM. As for `Cc1cn2cc(-c3ncc4nc(N(C)C5C6CCC5CNC6)sc4n3)cc(C#N)c2n1` (stereo not drawn) [Compound 228, 6-{2-[(8-anti)-3-azabicyclo[3.2.1]oct-8-yl(methyl)amino][1,3]thiazolo[5,4-d]pyrimidin-5-yl}-2-methylimidazo[1,2-a]pyridine-8-carbonitrile], the figure is 500 to 1000 nM; as for `Cc1cn2cc(-c3cc(F)c4nc(C5CCNCC5)sc4c3)nc2c(C)n1` [Compound 229, 2-[4-fluoro-2-(piperidin-4-yl)-1,3-benzothiazol-6-yl]-6,8-dimethylimidazo[1,2-a]pyrazine], at most 100 nM; as for `Cc1cn2nc(-c3cc(F)c4nc(C5CCNCC5)sc4c3)cc(C#N)c2n1` [Compound 230, 6-[4-fluoro-2-(piperidin-4-yl)-1,3-benzothiazol-6-yl]-2-methylimidazo[1,2-b]pyridazine-8-carbonitrile], at most 100 nM. Compound `Cc1cn2nc(-c3cc(F)c4nc(N(C)C5CCNCC5)sc4c3)cc(C#N)c2n1` [Compound 231, 6-{4-fluoro-2-[methyl(piperidin-4-yl)amino]-1,3-benzothiazol-6-yl}-2-methylimidazo[1,2-b]pyridazine-8-carbonitrile] returned an IC50 of at most 100 nM. As for `Cn1cc2cc(-c3cc4sc(NC5CC(C)(C)NC(C)(C)C5)nc4cn3)cc(F)c2n1` [Compound 232, 6-(7-fluoro-2-methyl-2H-indazol-5-yl)-N-(2,2,6,6-tetramethylpiperidin-4-yl)[1,3]thiazolo[4,5-c]pyridin-2-amine], the figure is at most 100 nM; as for `Cn1cc2cc(-c3cc4sc(NC5CC(C)(C)NC(C)(C)C5)nc4cn3)cc(C#N)c2n1` [Compound 233, 2-methyl-5-{2-[(2,2,6,6-tetramethylpiperidin-4-yl)amino][1,3]thiazolo[4,5-c]pyridin-6-yl}-2H-indazole-7-carbonitrile], at most 100 nM.

Compound `Cc1cn2cc(-c3cc4sc(NC5CC(C)(C)NC(C)(C)C5)nc4cn3)cc(F)c2n1` [Compound 234, 6-(8-fluoro-2-methylimidazo[1,2-a]pyridin-6-yl)-N-(2,2,6,6-tetramethylpiperidin-4-yl)[1,3]thiazolo[4,5-c]pyridin-2-amine] gave a concentration for half-maximal inhibition (IC50) of at most 100 nM.

Compound `Cc1cn2nc(-c3cc(F)c4nc(N(C)C5CC6CCC(C5)N6)sc4c3)cc(C#N)c2n1` (stereo not drawn) [Compound 235, 6-{2-[(3-exo)-8-azabicyclo[3.2.1]oct-3-yl(methyl)amino]-4-fluoro-1,3-benzothiazol-6-yl}-2-methylimidazo[1,2-b]pyridazine-8-carbonitrile] showed a concentration for half-maximal inhibition (IC50) of at most 100 nM. As for `Cc1cn2nc(-c3cc(F)c4nc(N(C)C5CC6CCC(C5)N6)sc4c3)cc(C(N)=O)c2n1` (stereo not drawn) [Compound 236, 6-{2-[(3-exo)-8-azabicyclo[3.2.1]oct-3-yl(methyl)amino]-4-fluoro-1,3-benzothiazol-6-yl}-2-methylimidazo[1,2-b]pyridazine-8-carboxamide], the figure is at most 100 nM; as for `CN(c1nc2c(F)cc(-c3ccc4nn(C)cc4n3)cc2s1)C1CC2CCC(C1)N2` (stereo not drawn) [Compound 237, N-[(3-exo)-8-azabicyclo[3.2.1]oct-3-yl]-4-fluoro-N-methyl-6-(2-methyl-2H-pyrazolo[4,3-b]pyridin-5-yl)-1,3-benzothiazol-2-amine], 100 to 500 nM.
